Experimental data as given in paper PMC8881610 (Nature Communications, 2022).
Read-outs that look alike come from different tables or passages of the source. Where a SMILES comes first, the peptide text is derived from it. [ ]: non-standard residue; d: D form. Aib = CC(C)(N)C(=O)O

Key:
GLP-1R [1] = target: T1, GLP-1R (Homo sapiens, UniProt P43220); test: cAMP accumulation assay, GLP-1R WT, mutant or modified constructs; assay type: cell-based; set-up: Flag; expressed in transfected cells; host or cells: HEK293T; conditions: for EC50 / Emax: HEK293T; for Emax: HEK-293T
Procedure: (§1) Human embryonic kidney 293 cells containing SV40 large T-antigen (HEK293T) were cultured in DMEM (Gibco) supplemented with 10% (v/v) fetal bovine serum (FBS, Gibco), 1 mM sodium pyruvate (Gibco) and 100 units/mL penicillin and 100 μg/mL streptomycin at 37 °C in 5% CO2. Chinese hamster ovary (CHO-K1) cells were cultured in F-12 (Gibco) containing 10% FBS, 100 units/mL penicillin and 100 μg/mL streptomycin at 37 °C in 5% CO2. For cAMP and receptor expression assays, HEK293T cells were seeded into 6-well cell culture plates at a density of 7 × 10^5 cells per well. After overnight incubation, cells were transfected with GIPR, GLP-1R or GCGR construct using Lipofectamine 2000 or Lipofectamine 3000 transfection reagent (Invitrogen). For whole-cell binding assay, CHO-K1 cells were seeded into 96-well fibronectin-treated cell culture plates at a density of 3 × 10^4 cells per well. After overnight incubation, cells were transfected with GIPR, GLP-1R or GCGR construct using Lipofectamine 2000 transfection reagent (Invitrogen). Following 24 h culturing, the transfected cells were ready for use.
The human GLP-1R was modified with its native signal sequence (M1-P23) replaced by the HA signal peptide to facilitate receptor expression. To obtain a GLP-1R–Gs complex with good homogeneity and stability, we used the NanoBiT tethering strategy, in which the C terminus of GLP-1R was directly attached to LgBiT subunit followed by a TEV protease cleavage site and a double MBP tag. […] The constructs were cloned into both pcDNA3.1 and pFastBac vectors for functional assays in mammalian cells and protein expression in insect cells, respectively. Other constructs including the full-length and various mutants of human GLP-1R were cloned into pcDNA3.1 vector for cAMP accumulation and whole-cell binding assays.
For GIPR, GLP-1R and GCGR, multi-targeting agonist stimulated cAMP accumulation was measured by a LANCE Ultra cAMP kit (PerkinElmer). After 24 h culture, the transfected cells were seeded into 384-well microtiter plates at a density of 3,000 cells per well in HBSS supplemented with 5 mM HEPES, 0.1% (w/v) BSA or 0.1% (w/v) casein and 0.5 mM 3-isobutyl-1-methylxanthine. The cells were stimulated with different concentrations of peptide agonists for 40 min at RT. Eu-cAMP tracer and ULight^TM-anti-cAMP were then diluted by cAMP detection buffer and added to the plates separately to terminate the reaction. Plates were incubated at RT for 1 h and the fluorescence intensity measured at 620 nm and […] by an EnVision multilabel plate reader (PerkinElmer).

GCGR = GCGR (Homo sapiens, UniProt P47871); test: Whole-cell binding assay, competition with 125I-GCG; set-up: V5 (C); 6×His (C); expressed in transfected cells; host or cells: CHO-K1
Procedure: as §1
(§2) For GLP-1R and GCGR, CHO-K1 cells (30,000 cells/well) were seeded into Isoplate-96 plates and incubated for 24 h at 37 °C in 5% CO2. The WT or mutant constructs were transiently transfected using Lipofectamine 2000 transfection reagent as previous described. They were then washed twice using F-12 with 0.1% BSA or 0.1% casein, 33 mM HEPES, and incubated for 2 h at 37 °C. […] Cells were washed three times with ice-cold PBS and lysed in PBS with 1% Triton X-100, 20 mM Tris-HCl. After addition of scintillation cocktail (PerkinElmer), radioactivity (CPM) was counted on a MicroBeta^2 microplate counter (PerkinElmer). Data were normalized to the WT response and analyzed using three-parameter logistic equation.

GLP-1R [2] = target: T1, GLP-1R; test: Whole-cell binding assay, competition with 125I-GLP-1(7-36)NH2; set-up: Flag; expressed in transfected cells
Procedure: as §1, §2

GIPR = target: T2, GIPR (Homo sapiens, UniProt P48546); test: β-arrestin 2 recruitment (BRET); assay type: cell-based; set-up: expressed in transfected cells; host or cells: HEK293T; conditions: GIPR WT, HEK293T; for Emax: HEK-293T
T2 sequence (P48546 22-466): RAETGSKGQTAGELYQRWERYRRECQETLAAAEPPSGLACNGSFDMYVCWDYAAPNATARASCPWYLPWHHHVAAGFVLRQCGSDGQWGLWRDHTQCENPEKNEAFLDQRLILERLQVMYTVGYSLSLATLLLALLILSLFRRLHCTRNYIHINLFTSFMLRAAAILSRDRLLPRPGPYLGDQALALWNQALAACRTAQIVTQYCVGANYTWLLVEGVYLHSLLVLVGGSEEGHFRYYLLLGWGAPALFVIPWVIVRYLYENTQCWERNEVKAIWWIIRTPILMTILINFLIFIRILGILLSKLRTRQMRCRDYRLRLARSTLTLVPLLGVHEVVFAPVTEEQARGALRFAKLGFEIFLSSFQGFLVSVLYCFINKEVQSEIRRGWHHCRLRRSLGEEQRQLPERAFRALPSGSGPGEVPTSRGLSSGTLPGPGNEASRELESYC
Procedure: After cells were grown for 24 h, transiently transfected cells were then seeded onto poly-D-lysine coated 96-well culture plates (50,000 cells/well) in DMEM with 10% FBS. Cells were grown for 20 h before incubation in assay buffer (HBSS supplemented with 10 mM HEPES, 0.1% BSA or 0.1% casein, pH 7.4) for 30 min at 37 °C. Coelentrazine-h (Yeasen Biotech) was added to a final concentration of 5 μM for 5 min before bioluminescence resonance energy transfer (BRET) readings were made using an EnVision plate reader (PerkinElmer). BRET baseline measurements were collected for 15 cycles prior to ligand addition. After which, BRET was measured for 55 cycles.

[3] = GLP-1R WT, 0.1% BSA, read-out: cAMP accumulation Emax
[4] = GLP-1R WT, 0.1% casein, read-out: cAMP accumulation Emax

T1 sequence (P43220 24-463): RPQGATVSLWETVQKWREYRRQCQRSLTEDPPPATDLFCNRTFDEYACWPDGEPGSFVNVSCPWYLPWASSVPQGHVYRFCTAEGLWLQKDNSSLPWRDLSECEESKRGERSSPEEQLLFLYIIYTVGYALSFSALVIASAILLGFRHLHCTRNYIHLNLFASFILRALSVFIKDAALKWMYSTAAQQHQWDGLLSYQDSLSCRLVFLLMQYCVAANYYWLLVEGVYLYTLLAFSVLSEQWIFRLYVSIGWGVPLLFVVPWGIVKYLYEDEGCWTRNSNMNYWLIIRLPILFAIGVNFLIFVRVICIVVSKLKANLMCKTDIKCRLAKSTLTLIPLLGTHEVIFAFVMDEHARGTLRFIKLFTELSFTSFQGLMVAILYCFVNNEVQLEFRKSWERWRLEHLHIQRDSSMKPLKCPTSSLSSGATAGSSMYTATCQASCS
Chain of GCGR (P47871 26-477): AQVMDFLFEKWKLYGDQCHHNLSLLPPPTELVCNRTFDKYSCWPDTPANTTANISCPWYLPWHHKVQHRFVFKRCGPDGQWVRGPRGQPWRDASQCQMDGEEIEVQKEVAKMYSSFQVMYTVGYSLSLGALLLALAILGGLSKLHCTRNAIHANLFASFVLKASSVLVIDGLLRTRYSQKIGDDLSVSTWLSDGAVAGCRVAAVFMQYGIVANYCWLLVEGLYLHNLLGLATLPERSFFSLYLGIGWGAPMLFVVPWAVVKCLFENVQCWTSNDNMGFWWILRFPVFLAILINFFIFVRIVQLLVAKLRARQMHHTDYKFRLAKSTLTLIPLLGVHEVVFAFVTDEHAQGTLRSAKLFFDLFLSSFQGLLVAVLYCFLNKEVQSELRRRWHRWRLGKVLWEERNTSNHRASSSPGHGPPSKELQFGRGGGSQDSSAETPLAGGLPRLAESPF

Structure (SMILES): CC(C)C[C@H](NC(=O)[C@H](CC(C)C)NC(=O)[C@H](Cc1c[nH]c2ccccc12)NC(=O)[C@H](CCC(N)=O)NC(=O)[C@@H](NC(=O)[C@H](Cc1ccccc1)NC(=O)[C@H](CC(=O)O)NC(=O)[C@H](CCC(N)=O)NC(=O)[C@H](C)NC(=O)[C@H](C)NC(=O)[C@H](CCCNC(=N)N)NC(=O)[C@H](CCC(=O)O)NC(=O)[C@H](CC(=O)O)NC(=O)[C@H](CC(C)C)NC(=O)[C@H](Cc1ccc(O)cc1)NC(=O)[C@H](CCCCN)NC(=O)[C@H](CO)NC(=O)[C@H](CCCCN)NC(=O)[C@H](CC(=O)O)NC(=O)[C@H](CO)NC(=O)[C@@H](NC(=O)[C@H](Cc1ccccc1)NC(=O)[C@@H](NC(=O)CNC(=O)[C@H](CCC(N)=O)NC(=O)C(C)(C)NC(=O)[C@@H](N)Cc1c[nH]cn1)[C@@H](C)O)[C@@H](C)O)C(C)C)C(=O)N[C@@H](CC(=O)O)C(=O)NCC(=O)NCC(=O)N1CCC[C@H]1C(=O)N[C@@H](CO)C(=O)N[C@@H](CO)C(=O)NCC(=O)N[C@@H](C)C(=O)N1CCC[C@H]1C(=O)N1CCC[C@H]1C(=O)N1CCC[C@H]1C(=O)N[C@@H](CO)C(N)=O [Non-lipidated peptide 20] (H-H[Aib]QGTFTSDKSKYLDERAAQDFVQWLLDGGPSSGAPPPS-NH2; N-terminus and C-terminus assumed)
- EC50 (GLP-1R [1]; GLP-1R WT, 0.1% BSA, read-out: cAMP accumulation pEC50 (converted)): 0.00288 nM
- influence on cAMP accumulation vs peptide 20 (GLP-1R [1]; GLP-1R, 0.1% BSA): inappreciably influenced
- Emax (GLP-1R [1]; [3]): 99.7 ± 1.41%
- Emax (GLP-1R [1]; [4]): 99.2 ± 1.39%
- binding Span (GCGR; GCGR WT, 0.1% BSA, CHO-K1): N.B.
- binding pIC50 (GCGR; GCGR WT, 0.1% BSA, CHO-K1): N.B.
- binding Span (GCGR; GCGR WT, 0.1% casein, CHO-K1): N.B.
- binding pIC50 (GCGR; GCGR WT, 0.1% casein, CHO-K1): N.B.
- decrease of binding ability (IC50) vs peptide 20 (GLP-1R [2]; GLP-1R, 0.1% casein or 0.1% BSA): 3- to 17 fold

Structure (SMILES): CCCCCCCCCCCCCCCC(=O)N[C@@H](CCC(=O)NCCCC[C@H](NC(=O)[C@H](CC(=O)O)NC(=O)[C@H](CO)NC(=O)[C@@H](NC(=O)[C@H](Cc1ccccc1)NC(=O)[C@@H](NC(=O)CNC(=O)[C@H](CCC(N)=O)NC(=O)C(C)(C)NC(=O)[C@@H](N)Cc1c[nH]cn1)[C@@H](C)O)[C@@H](C)O)C(=O)N[C@@H](CO)C(=O)N[C@@H](CCCCN)C(=O)N[C@@H](Cc1ccc(O)cc1)C(=O)N[C@@H](CC(C)C)C(=O)N[C@@H](CC(=O)O)C(=O)N[C@@H](CCC(=O)O)C(=O)N[C@@H](CCCNC(=N)N)C(=O)N[C@@H](C)C(=O)N[C@@H](C)C(=O)N[C@@H](CCC(N)=O)C(=O)N[C@@H](CC(=O)O)C(=O)N[C@@H](Cc1ccccc1)C(=O)N[C@H](C(=O)N[C@@H](CCC(N)=O)C(=O)N[C@@H](Cc1c[nH]c2ccccc12)C(=O)N[C@@H](CC(C)C)C(=O)N[C@@H](CC(C)C)C(=O)N[C@@H](CC(=O)O)C(=O)NCC(=O)NCC(=O)N1CCC[C@H]1C(=O)N[C@@H](CO)C(=O)N[C@@H](CO)C(=O)NCC(=O)N[C@@H](C)C(=O)N1CCC[C@H]1C(=O)N1CCC[C@H]1C(=O)N1CCC[C@H]1C(=O)N[C@@H](CO)C(N)=O)C(C)C)C(=O)O [Peptide 20]
- EC50 (GLP-1R [1]; GLP-1R WT, read-out: cAMP pEC50 (converted)): 0.00269 nM
- EC50 (GLP-1R [1]; GLP-1R, n = 4, SEM, read-out: cAMP pEC50 ± S.E.M. (converted)): 0.00123 nM
- Emax (GLP-1R [1]; [3]): 99.24 ± 0.96%
- Emax (GLP-1R [1]; [4]): 98.5 ± 1.33%
- Emax (GLP-1R [1]; GLP-1R WT, read-out: cAMP Emax): 99.6 ± 1.37%
- Emax (GLP-1R [1]; GLP-1R, n = 4, SEM, read-out: cAMP Emax ± S.E.M.): 99.6 ± 1.17%
- IC50 (GCGR; Fig. 7c receptor binding profile, n = 3 in duplicate, SEM, read-out: GCGR (pIC50 ± S.E.M.) (converted)): 107 nM
- IC50 (GCGR; GCGR WT, 0.1% BSA, CHO-K1, read-out: Binding pIC50 (converted)): 55 nM
- IC50 (GCGR; GCGR WT, 0.1% casein, CHO-K1, read-out: Binding pIC50 (converted)): 16.6 nM
- binding Span (GCGR; GCGR WT, CHO-K1): 99.29 ± 3.10 % WT
- IC50 (GCGR; GCGR WT, CHO-K1, read-out: binding pIC50 (converted)): 89.1 nM
- IC50 (GLP-1R [2]; Fig. 7c receptor binding profile, n = 3 in duplicate, SEM, read-out: GLP-1R (pIC50 ± S.E.M.) (converted)): 3.39 nM
- binding Span (GLP-1R [2]; GLP-1R WT, 0.1% casein, CHO-K1): 85.25 ± 8.33
- binding Span (GLP-1R [2]; GLP-1R WT, CHO-K1): 99.44 ± 2.88 % WT
- IC50 (GLP-1R [2]; GLP-1R WT, CHO-K1, read-out: binding pIC50 (converted)): 6.17 nM

Structure (SMILES): CC[C@H](C)[C@H](NC(=O)[C@H](CC(C)C)NC(=O)[C@H](Cc1c[nH]c2ccccc12)NC(=O)[C@H](CCC(N)=O)NC(=O)[C@@H](NC(=O)[C@H](Cc1ccccc1)NC(=O)[C@H](C)NC(=O)[C@H](CCCCNC(=O)COCCOCCNC(=O)COCCOCCNC(=O)CC[C@H](NC(=O)CCCCCCCCCCCCCCCCCCC(=O)O)C(=O)O)NC(=O)[C@H](CCC(N)=O)NC(=O)[C@H](C)NC(=O)[C@@H](NC(=O)[C@H](CCCCN)NC(=O)[C@H](CC(=O)O)NC(=O)[C@H](CC(C)C)NC(=O)C(C)(C)NC(=O)[C@@H](NC(=O)[C@H](CO)NC(=O)[C@H](Cc1ccc(O)cc1)NC(=O)[C@H](CC(=O)O)NC(=O)[C@H](CO)NC(=O)[C@@H](NC(=O)[C@H](Cc1ccccc1)NC(=O)[C@@H](NC(=O)CNC(=O)[C@H](CCC(=O)O)NC(=O)C(C)(C)NC(=O)[C@@H](N)Cc1ccc(O)cc1)[C@@H](C)O)[C@@H](C)O)[C@@H](C)CC)[C@@H](C)CC)C(C)C)C(=O)N[C@@H](C)C(=O)NCC(=O)NCC(=O)N1CCC[C@H]1C(=O)N[C@@H](CO)C(=O)N[C@@H](CO)C(=O)NCC(=O)N[C@@H](C)C(=O)N1CCC[C@H]1C(=O)N1CCC[C@H]1C(=O)N1CCC[C@H]1C(=O)N[C@@H](CO)C(N)=O [Tirzepatide]
- EC50 (GIPR; 0.1% casein, read-out: β-arrestin 2 recruitment pEC50 (converted)): 18.6 nM
- Emax (GIPR; 0.1% BSA): 53.4 ± 2.32%
- Emax (GIPR; 0.1% casein): 53.4 ± 1.93%
- Emax (GLP-1R [1]; [3]): 99.7 ± 1.5%
- Emax (GLP-1R [1]; [4]): 99.1 ± 1.73%
- GCGR (pIC50 ± S.E.M.) (GCGR; Fig. 7c receptor binding profile, n = 3 in duplicate): N.B.
